Laboratory results published in patent US20040063662A1, “Selenophene anti-tumor agents” (priority 1996, published 2004).

Legend:
HOP-62 = assay: NCI human tumor cell panel: HOP-62 (Non-Small Cell Lung Cancer); assay type: cell-based; settings: HOP-62, Non-Small Cell Lung Cancer, read-out: Log10 TGI (converted)
SF-539 = assay: NCI human tumor cell panel: SF-539 (CNS Cancer); assay type: cell-based; settings: SF-539, CNS Cancer
HS 578T = assay: NCI human tumor cell panel: HS 578T (Breast Cancer); assay type: cell-based; settings: Breast Cancer
DU-145 = assay: NCI human tumor cell panel: DU-145 (Prostate Cancer); assay type: cell-based; settings: DU-145, Prostate Cancer
SN12C = assay: NCI human tumor cell panel: SN12C (Renal Cancer); assay type: cell-based; settings: Renal Cancer
UACC-62 = assay: NCI human tumor cell panel: UACC-62 (Melanoma); assay type: cell-based; settings: UACC-62, Melanoma
NCI-H23 = assay: NCI human tumor cell panel: NCI-H23 (Non-Small Cell Lung Cancer); assay type: cell-based; settings: NCI-H23, Non-Small Cell Lung Cancer, read-out: Log10 TGI (converted)
OVCAR-8 = assay: NCI human tumor cell panel: OVCAR-8 (Ovarian Cancer); assay type: cell-based; settings: OVCAR-8, Ovarian Cancer
SNB-19 = assay: NCI human tumor cell panel: SNB-19 (CNS Cancer); assay type: cell-based; settings: SNB-19, CNS Cancer
BT-549 = assay: NCI human tumor cell panel: BT-549 (Breast Cancer); assay type: cell-based; settings: BT-549, Breast Cancer
MALME-3M = assay: NCI human tumor cell panel: MALME-3M (Melanoma); assay type: cell-based; settings: MALME-3M, Melanoma
MDA-N = assay: NCI human tumor cell panel: MDA-N (Breast Cancer); assay type: cell-based; settings: Breast Cancer
HCT-15 = assay: NCI human tumor cell panel: HCT-15 (Colon Cancer); assay type: cell-based; settings: HCT-15, Colon Cancer
RPMI-8226 = assay: NCI human tumor cell panel: RPMI-8226 (Leukemia); assay type: cell-based; settings: RPMI-8226, Leukemia
HOP-92 = assay: NCI human tumor cell panel: HOP-92 (Non-Small Cell Lung Cancer)
PC-3 = assay: NCI human tumor cell panel: PC-3 (Prostate Cancer); assay type: cell-based; settings: PC-3, Prostate Cancer
A549/ATCC = assay: NCI human tumor cell panel: A549/ATCC (Non-Small Cell Lung Cancer); assay type: cell-based; settings: Non-Small Cell Lung Cancer
786-0 = assay: NCI human tumor cell panel: 786-0 (Renal Cancer); assay type: cell-based; settings: 786-0, Renal Cancer
SF-295 = assay: NCI human tumor cell panel: SF-295 (CNS Cancer); assay type: cell-based; settings: SF-295, CNS Cancer
MOLT-4 = assay: NCI human tumor cell panel: MOLT-4 (Leukemia); assay type: cell-based; settings: MOLT-4, Leukemia
HT29 = assay: NCI human tumor cell panel: HT29 (Colon Cancer); assay type: cell-based; settings: HT-29, HT29, Colon Cancer
EKVX = assay: NCI human tumor cell panel: EKVX (Non-Small Cell Lung Cancer); assay type: cell-based; settings: Non-Small Cell Lung Cancer, read-out: Log10 GI50 (converted)
UO-31 = assay: NCI human tumor cell panel: UO-31 (Renal Cancer); assay type: cell-based; settings: UO-31, Renal Cancer
U251 = assay: NCI human tumor cell panel: U251 (CNS Cancer); assay type: cell-based; settings: U-251, U251, CNS Cancer
LOX IMVI = assay: NCI human tumor cell panel: LOX IMVI (Melanoma); assay type: cell-based; settings: Melanoma
SW-620 = assay: NCI human tumor cell panel: SW-620 (Colon Cancer); assay type: cell-based; settings: SW-620, Colon Cancer
NCI-H522 = assay: NCI human tumor cell panel: NCI-H522 (Non-Small Cell Lung Cancer)
HCT-116 = assay: NCI human tumor cell panel: HCT-116 (Colon Cancer); assay type: cell-based; settings: HCT-116, Colon Cancer
OVCAR-3 = assay: NCI human tumor cell panel: OVCAR-3 (Ovarian Cancer); assay type: cell-based; settings: OVCAR-3, Ovarian Cancer
ACHN = assay: NCI human tumor cell panel: ACHN (Renal Cancer); assay type: cell-based; settings: Renal Cancer
CCRF-CEM = assay: NCI human tumor cell panel: CCRF-CEM (Leukemia); assay type: cell-based; settings: Leukemia
[1] = read-out: Log10 GI50 (converted)
[2] = read-out: Log10 TGI (converted)

O=Cc1ccc(-c2ccc(-c3ccc(C=O)[se]3)s2)[se]1 [NSC 676630]
IC (TGI) (HOP-62): > 100 µM
GI50 (SF-539; [1]): > 100 µM
IC (TGI) (SF-539; [2]): > 100 µM
GI50 (HS 578T; [1]): > 100 µM
IC (TGI) (HS 578T; [2]): > 100 µM
GI50 (DU-145; [1]): > 100 µM
IC (TGI) (DU-145; [2]): > 100 µM
GI50 (SN12C; [1]): > 100 µM
IC (TGI) (SN12C; [2]): > 100 µM
GI50 (UACC-62; [1]): 0.263 µM
IC (TGI) (UACC-62; [2]): > 100 µM
IC (TGI) (NCI-H23): > 100 µM
GI50 (OVCAR-8; [1]): 33.1 µM
IC (TGI) (OVCAR-8; [2]): > 100 µM
GI50 (SNB-19; [1]): > 100 µM
IC (TGI) (SNB-19; [2]): > 100 µM
GI50 (BT-549; [1]): 63.1 µM
IC (TGI) (BT-549; [2]): > 100 µM
GI50 (MALME-3M; [1]): > 100 µM
IC (TGI) (MALME-3M; [2]): > 100 µM
GI50 (MDA-N; [1]): > 100 µM
IC (TGI) (MDA-N; [2]): > 100 µM
GI50 (HCT-15; [1]): > 100 µM
IC (TGI) (HCT-15; [2]): > 100 µM
GI50 (RPMI-8226; [1]): > 100 µM
IC (TGI) (RPMI-8226; read-out: Log10 TGI): > 100 µM
GI50 (HOP-92; HOP-92, read-out: Log10 GI50 (converted)): > 100 µM
IC (TGI) (HOP-92; HOP-92, read-out: Log10 TGI): > 100 µM
GI50 (PC-3; [1]): > 100 µM
IC (TGI) (PC-3; [2]): > 100 µM
GI50 (A549/ATCC; [1]): 87.1 µM
IC (TGI) (A549/ATCC; [2]): > 100 µM
GI50 (786-0; [1]): > 100 µM
IC (TGI) (786-0; [2]): > 100 µM
GI50 (SF-295; [1]): > 100 µM
IC (TGI) (SF-295; [2]): > 100 µM
GI50 (MOLT-4; [1]): > 100 µM
IC (TGI) (MOLT-4; [2]): > 100 µM
GI50 (HT29; [1]): > 100 µM
IC (TGI) (HT29; [2]): > 100 µM
GI50 (EKVX): > 100 µM
GI50 (UO-31; [1]): > 100 µM
IC (TGI) (UO-31; [2]): > 100 µM
GI50 (U251; [1]): 0.589 µM
IC (TGI) (U251; [2]): > 100 µM
GI50 (LOX IMVI; [1]): > 100 µM
IC (TGI) (LOX IMVI; [2]): > 100 µM
GI50 (SW-620; [1]): > 100 µM
IC (TGI) (SW-620; [2]): > 100 µM
GI50 (NCI-H522; NCI-H522, read-out: Log10 GI50 (converted)): 20.9 µM
IC (TGI) (NCI-H522; NCI-H522, read-out: Log10 TGI): 53.7 µM
GI50 (HCT-116; [1]): 3.02 µM
IC (TGI) (HCT-116; [2]): > 100 µM
GI50 (OVCAR-3; [1]): 0.724 µM
IC (TGI) (OVCAR-3; [2]): > 100 µM
GI50 (ACHN; [1]): > 100 µM
IC (TGI) (ACHN; [2]): > 100 µM
GI50 (CCRF-CEM; [1]): > 100 µM
IC (TGI) (CCRF-CEM; [2]): > 100 µM
